According to ChEMBL document CHEMBL1201862, “PubChem BioAssay data set” (2004):
The source made the active and inactive calls.

Tests used:
[1] = target: T1, Eukaryotic translation initiation factor 2-alpha kinase 3 (Homo sapiens, UniProt Q9NZJ5); assay: Counterscreen assay for PERK inhibitors: Dose response cell-based high throughput screening assay to measure inhibition of PERK at 6 hours. [Related pubchem assays: 1522, 1416 ]; type: functional
[2] = target: T1, Eukaryotic translation initiation factor 2-alpha kinase 3; assay: Dose response cell-based high-throughput screening assay to measure PERK inhibition. [Related pubchem assays: 1416 ]; type: functional
[3] = target: RNA-editing ligase 1, mitochondrial (Trypanosoma brucei brucei, UniProt P86926); assay: inhibition of trypanosome RNA editing ligase – biochemical, fluorescence, Trypanosoma brucei, dose response (AID 1117295); type: functional
[4] = target: T2, Aspartyl aminopeptidase (Plasmodium falciparum 3D7, UniProt Q8I2J3)
T2 sequence (Q8I2J3 whole entry): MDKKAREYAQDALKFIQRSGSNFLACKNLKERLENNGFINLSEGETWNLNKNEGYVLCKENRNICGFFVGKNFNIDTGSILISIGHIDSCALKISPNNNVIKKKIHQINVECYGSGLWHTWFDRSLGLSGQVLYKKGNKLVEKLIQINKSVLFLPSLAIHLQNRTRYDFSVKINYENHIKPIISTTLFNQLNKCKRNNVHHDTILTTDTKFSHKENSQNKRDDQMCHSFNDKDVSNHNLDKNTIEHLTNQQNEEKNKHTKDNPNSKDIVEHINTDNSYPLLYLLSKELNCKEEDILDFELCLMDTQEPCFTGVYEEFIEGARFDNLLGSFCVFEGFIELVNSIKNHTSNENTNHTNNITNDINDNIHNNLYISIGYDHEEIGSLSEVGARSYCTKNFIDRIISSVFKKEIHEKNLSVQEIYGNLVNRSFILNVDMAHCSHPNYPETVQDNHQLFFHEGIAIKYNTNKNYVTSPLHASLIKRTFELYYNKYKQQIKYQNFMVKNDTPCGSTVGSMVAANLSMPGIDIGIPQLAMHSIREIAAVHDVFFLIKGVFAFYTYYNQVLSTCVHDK

[5] = target: Procathepsin L (Homo sapiens, UniProt P07711)
[6] = target: Large T antigen (Simian virus 40, UniProt P03070); type: functional, Betapolyomavirus macacae;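 also: Confirmatory-stage PubChem screen for compounds that inhibit SV40 T antigen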
[7] = target: Lysosomal acid glucosylceramidase (Homo sapiens, UniProt P04062); assay: Dose response cell-based high throughput screening assay to identify enhancers of beta-glucosidase activity. [Related pubchem assays: 784 ]; type: functional
[8] = target: Albumin (Bos taurus, UniProt P02769); assay: Counterscreen for inhibitors of T-cell receptor (TCR)-CD3 interaction: Fluorescence-based biochemical high throughput dose response assay to identify inhibitors of T-cell receptor (TCR)-CD3 interaction using a TAMRA-labeled BSA probe.; type: functional
[9] = target: T3, Voltage-gated N-type calcium channel alpha-1B subunit/Amyloid beta A4 precursor protein-binding family A member 1 (Homo sapiens, UniProt Q00975+Q02410); assay: disruptors of Mint-PDZ/N-type channel peptide interaction – biochemical, HTRF, set 2, SAR follow-up (AID 434980); type: functional
T3 sequence (Q00975 whole entry): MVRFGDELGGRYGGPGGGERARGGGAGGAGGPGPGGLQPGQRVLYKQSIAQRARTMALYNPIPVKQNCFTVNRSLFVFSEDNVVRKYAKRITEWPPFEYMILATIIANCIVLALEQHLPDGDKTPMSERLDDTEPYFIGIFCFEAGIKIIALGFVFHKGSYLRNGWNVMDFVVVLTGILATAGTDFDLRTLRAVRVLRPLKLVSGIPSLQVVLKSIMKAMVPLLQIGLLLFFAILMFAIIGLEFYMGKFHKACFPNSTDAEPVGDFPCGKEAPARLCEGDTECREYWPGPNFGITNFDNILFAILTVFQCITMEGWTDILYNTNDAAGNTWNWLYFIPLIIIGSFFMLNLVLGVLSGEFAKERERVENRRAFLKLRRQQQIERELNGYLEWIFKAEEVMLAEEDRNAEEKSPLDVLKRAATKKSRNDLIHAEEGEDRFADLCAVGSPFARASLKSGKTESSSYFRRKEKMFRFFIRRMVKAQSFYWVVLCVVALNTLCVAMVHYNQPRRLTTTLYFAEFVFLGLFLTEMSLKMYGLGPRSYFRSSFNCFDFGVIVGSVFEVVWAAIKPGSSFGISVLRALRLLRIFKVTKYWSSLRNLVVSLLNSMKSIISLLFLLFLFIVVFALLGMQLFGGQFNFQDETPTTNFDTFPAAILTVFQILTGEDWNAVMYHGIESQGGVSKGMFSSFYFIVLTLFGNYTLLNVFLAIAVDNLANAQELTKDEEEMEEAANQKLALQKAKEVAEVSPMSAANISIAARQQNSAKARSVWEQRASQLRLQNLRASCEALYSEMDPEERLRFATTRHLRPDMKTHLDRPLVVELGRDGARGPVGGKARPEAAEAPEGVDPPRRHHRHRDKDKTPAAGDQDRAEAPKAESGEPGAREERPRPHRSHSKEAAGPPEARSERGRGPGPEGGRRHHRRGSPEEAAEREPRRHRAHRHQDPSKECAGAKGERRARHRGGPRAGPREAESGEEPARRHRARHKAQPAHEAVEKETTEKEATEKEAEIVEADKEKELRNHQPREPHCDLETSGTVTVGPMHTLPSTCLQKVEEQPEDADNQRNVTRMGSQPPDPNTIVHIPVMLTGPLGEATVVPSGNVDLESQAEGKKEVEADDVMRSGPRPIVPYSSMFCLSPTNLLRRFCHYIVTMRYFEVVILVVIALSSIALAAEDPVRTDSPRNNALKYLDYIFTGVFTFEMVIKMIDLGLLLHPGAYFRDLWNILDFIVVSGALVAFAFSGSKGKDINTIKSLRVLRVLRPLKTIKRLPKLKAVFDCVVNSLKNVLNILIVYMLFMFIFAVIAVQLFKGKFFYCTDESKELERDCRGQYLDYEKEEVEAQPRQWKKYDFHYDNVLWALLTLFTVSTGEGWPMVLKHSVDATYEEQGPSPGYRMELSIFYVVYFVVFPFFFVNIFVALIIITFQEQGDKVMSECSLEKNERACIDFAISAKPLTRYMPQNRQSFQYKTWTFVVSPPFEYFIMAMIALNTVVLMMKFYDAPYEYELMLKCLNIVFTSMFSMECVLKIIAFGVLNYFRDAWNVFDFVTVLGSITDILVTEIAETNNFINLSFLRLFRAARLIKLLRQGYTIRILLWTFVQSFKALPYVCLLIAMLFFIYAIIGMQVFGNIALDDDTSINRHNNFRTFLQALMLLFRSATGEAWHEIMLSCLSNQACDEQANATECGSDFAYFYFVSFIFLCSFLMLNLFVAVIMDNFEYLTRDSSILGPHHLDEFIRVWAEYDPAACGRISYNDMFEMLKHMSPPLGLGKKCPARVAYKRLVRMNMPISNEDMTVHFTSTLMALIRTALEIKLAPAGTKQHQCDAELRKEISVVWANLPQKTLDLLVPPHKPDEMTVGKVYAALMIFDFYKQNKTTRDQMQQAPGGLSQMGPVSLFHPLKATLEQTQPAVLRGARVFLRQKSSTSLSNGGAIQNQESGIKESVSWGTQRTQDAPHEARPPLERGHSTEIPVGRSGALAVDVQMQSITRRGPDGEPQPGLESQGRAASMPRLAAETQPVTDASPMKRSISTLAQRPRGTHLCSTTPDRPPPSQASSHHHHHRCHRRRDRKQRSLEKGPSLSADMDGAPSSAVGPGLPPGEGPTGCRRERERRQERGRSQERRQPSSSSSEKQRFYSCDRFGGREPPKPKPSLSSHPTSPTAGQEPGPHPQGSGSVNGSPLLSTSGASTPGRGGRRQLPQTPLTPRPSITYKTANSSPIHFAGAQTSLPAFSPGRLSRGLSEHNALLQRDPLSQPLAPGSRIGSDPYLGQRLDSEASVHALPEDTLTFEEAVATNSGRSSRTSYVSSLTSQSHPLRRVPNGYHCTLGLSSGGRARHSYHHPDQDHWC
T3 sequence (Q02410 whole entry): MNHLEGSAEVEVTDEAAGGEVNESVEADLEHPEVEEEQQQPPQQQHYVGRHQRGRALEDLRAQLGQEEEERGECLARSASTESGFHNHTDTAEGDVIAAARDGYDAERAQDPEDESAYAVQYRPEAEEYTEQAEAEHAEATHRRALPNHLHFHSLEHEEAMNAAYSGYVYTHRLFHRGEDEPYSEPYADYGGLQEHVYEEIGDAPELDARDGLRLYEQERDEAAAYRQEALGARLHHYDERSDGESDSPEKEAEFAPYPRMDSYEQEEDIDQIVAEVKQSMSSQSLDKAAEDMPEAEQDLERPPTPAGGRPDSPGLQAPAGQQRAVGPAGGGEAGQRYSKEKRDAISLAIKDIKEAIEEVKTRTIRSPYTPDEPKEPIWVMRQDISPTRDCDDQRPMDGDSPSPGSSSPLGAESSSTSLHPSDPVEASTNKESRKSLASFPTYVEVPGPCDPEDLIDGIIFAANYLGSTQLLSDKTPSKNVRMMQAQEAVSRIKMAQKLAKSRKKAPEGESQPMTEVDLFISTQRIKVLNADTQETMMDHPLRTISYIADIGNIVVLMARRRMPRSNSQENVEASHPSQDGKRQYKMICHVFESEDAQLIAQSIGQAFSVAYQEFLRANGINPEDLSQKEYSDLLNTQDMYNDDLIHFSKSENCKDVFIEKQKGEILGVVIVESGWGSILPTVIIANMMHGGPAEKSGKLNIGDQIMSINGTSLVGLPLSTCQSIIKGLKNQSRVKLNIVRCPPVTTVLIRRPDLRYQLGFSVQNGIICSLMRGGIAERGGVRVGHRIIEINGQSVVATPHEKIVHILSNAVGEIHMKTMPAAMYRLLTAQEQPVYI

[10] = target: Induced myeloid leukemia cell differentiation protein Mcl-1 (Homo sapiens, UniProt Q07820); type: functional
Sequence of Induced myeloid leukemia cell differentiation protein Mcl-1 (Q07820 whole entry): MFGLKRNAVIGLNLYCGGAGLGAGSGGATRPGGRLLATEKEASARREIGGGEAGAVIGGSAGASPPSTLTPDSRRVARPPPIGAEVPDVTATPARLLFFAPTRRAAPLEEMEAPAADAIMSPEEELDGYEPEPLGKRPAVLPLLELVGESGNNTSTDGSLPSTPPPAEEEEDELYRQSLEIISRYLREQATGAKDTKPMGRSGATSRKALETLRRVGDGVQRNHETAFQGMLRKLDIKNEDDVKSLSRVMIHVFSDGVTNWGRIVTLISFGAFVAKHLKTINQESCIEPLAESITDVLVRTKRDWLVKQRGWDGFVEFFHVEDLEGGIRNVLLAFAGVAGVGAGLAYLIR

[11] = target: T4, Small ubiquitin-related modifier 1 (Homo sapiens, UniProt P63165); assay: SUMO1 protein interaction blockers, potency – biochemical, fluorescence polarization, uHTS hits, dose response (AID 624382); type: functional; details: read-out: IC50_Mean
T4 sequence (P63165 whole entry): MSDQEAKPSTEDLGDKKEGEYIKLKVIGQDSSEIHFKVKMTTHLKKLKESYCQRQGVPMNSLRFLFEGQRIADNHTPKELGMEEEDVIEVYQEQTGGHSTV

[12] = target: SUMO E1/E2 (Homo sapiens, UniProt P63279+Q9UBE0+Q9UBT2); assay: SAR analysis of SUMOylation using HTRF in an in-Vitro dose response assay. [Related pubchem assays (depositor defined):AID2006, AID2011, AID2018, AID2069, AID2658]; type: functional
[13] = target: T3, Voltage-gated N-type calcium channel alpha-1B subunit/Amyloid beta A4 precursor protein-binding family A member 1; type: protein assay
[14] = target: T4, Small ubiquitin-related modifier 1; assay: SUMO1 protein-protein binding blockers, potency – biochemical, FRET, dose response (AID 624383); type: functional; details: read-out: IC50_Mean
[15] = target: Genome polyprotein (Hepatitis C virus, UniProt Q2Q167); assay: disruption of hepatitis C core self-association – biochemical, TR-FRET, dose response (AID 2159); design: species or system Hepacivirus hominis;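 also: blocks dimerization of HCV core protein measured by TR-FRET between tagged core106 pairs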
[16] = target: T3, Voltage-gated N-type calcium channel alpha-1B subunit/Amyloid beta A4 precursor protein-binding family A member 1; type: protein assay; remark: listed apart in the source
[17] = target: T3, Voltage-gated N-type calcium channel alpha-1B subunit/Amyloid beta A4 precursor protein-binding family A member 1; assay: disruptors of Mint-PDZ/N-type channel peptide interaction – biochemical, HTRF, SAR follow-up (AID 2489); type: functional
[18] = test system: BJ; assay: cells; type: functional, cell-based; details: Homo sapiens
[19] = test system: J774.A1; assay: Confirmation of image-based Screening Assay for Inhibitors of Phagocytosis. [Related pubchem assays (depositor defined):AID1029, AID1643]; type: functional, cell-based; details: Mus musculus
[20] = test system: BJ; assay: BJ-TERT fibroblast viability loss – cell-based, RAS-independent, luminescence, dose response (AID 1933); type: functional; details: Homo sapiens
[21] = test system: BJ; assay: BJ-TERT-LT-ST fibroblast viability loss – cell-based, RAS-independent, luminescence, dose response (AID 1935); type: functional; details: Homo sapiens;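 also: BJ fibroblasts immortalized with TERT plus LT and ST oncogenes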
[22] = DRD fibroblast viability loss – cell-based, non-viral oncogenic, luminescence, dose response (AID 1934); type: functional; details: Homo sapiens
[23] = target: G-protein coupled receptor 35 (Homo sapiens, UniProt Q9HC97); assay: inhibition of zaprinast-stimulated GPR35 beta-arrestin translocation – imaging, U2OS, beta-arrestin-GFP, zaprinast agonist, primary screen (AID 2058); type: functional;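 also: antagonist potency meaning inhibition of agonist-induced arrestin redistribution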
Sequence of G-protein coupled receptor 35 (Q9HC97 whole entry): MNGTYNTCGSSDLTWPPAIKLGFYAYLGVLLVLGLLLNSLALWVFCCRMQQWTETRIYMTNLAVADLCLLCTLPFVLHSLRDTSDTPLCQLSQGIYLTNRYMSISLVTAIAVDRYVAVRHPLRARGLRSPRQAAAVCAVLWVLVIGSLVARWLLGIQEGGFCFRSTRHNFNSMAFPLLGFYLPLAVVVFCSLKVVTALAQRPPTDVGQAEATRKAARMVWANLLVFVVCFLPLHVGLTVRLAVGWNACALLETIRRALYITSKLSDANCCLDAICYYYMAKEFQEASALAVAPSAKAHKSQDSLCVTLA

T1 sequence (Q9NZJ5 whole entry): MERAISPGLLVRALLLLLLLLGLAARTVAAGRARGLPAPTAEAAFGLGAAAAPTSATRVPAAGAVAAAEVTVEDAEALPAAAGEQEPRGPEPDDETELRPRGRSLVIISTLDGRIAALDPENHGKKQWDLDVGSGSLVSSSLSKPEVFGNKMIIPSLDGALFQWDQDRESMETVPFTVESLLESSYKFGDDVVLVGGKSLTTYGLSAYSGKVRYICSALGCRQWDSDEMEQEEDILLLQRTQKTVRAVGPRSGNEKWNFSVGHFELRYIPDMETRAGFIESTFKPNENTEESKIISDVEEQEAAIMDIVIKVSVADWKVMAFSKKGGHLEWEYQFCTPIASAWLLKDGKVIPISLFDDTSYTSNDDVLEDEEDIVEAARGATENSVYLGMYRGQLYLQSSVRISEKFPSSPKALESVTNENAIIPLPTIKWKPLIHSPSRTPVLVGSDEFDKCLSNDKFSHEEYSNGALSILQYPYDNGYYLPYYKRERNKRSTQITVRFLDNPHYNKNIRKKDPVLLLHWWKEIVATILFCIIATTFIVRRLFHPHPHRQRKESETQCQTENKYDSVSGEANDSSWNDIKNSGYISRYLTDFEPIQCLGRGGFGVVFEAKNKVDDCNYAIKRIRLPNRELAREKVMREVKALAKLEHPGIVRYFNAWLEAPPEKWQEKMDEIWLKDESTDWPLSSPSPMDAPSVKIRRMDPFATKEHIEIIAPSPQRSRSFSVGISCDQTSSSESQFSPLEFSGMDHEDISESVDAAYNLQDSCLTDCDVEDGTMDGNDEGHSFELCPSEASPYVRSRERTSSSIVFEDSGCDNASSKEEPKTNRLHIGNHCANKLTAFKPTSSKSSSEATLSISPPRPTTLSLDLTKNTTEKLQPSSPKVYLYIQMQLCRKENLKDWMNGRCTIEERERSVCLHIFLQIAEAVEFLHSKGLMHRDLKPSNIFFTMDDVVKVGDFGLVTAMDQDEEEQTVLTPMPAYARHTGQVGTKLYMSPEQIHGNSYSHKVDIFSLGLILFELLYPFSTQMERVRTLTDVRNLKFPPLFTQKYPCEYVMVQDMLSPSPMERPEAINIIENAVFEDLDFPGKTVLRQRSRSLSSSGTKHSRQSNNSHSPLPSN

For `COc1ccc(Nc2nnc(C)c(O)n2)c(OC)c1`, which EC50 [1] is on record?
Its EC50 is > 55.7 µM (not active).

What about the EC50 [2] of the same compound?
The EC50 was > 55.7 µM (not active).

Which IC50 [3] does the source give for `O=C1NC(=O)C(=Cc2ccc(-c3ccc(F)cc3O)o2)C(=O)N1` here?
Its IC50 is 63.8 µM (inactive).

And the IC50 [4]?
The IC50 was 4.13 µM (active).

And the IC50 [5]?
Its IC50 is > 59.6 µM (not active).

And the IC50 [6]?
Its IC50 is 39.9 µM (active).

Which EC50 [7] does the source give for `COc1ccc(CN(Cc2cc3cccc(C)c3nc2O)C(=O)N(C)C)cc1` here?
Its EC50 is > 10 µM (not active).

For `CN(C(=O)COC(=O)c1cc(-c2ccco2)nc2ccccc12)C1CCS(=O)(=O)C1` (stereo not drawn), which IC50 [8] is on record?
Its IC50 is > 94.1 µM (inactive).

What about the IC50 [9] of the same compound?
The IC50 was 3.26 µM (active).

What about the IC50 [10] of the same compound?
The IC50 was 1.59 µM (active).

And the IC50 [11]?
Its IC50 is > 66.6 µM (inactive).

And the IC50 [12]?
Its IC50 is 2.66 µM (active).

What about the IC50 [13] of the same compound?
Its IC50 is 2.15 µM (active).

And the IC50 [14]?
Its IC50 is 4.99 µM (active).

And the IC50 [15]?
The IC50 was > 49.8 µM (not active).

And the IC50 [16]?
Its IC50 is 28.8 µM (active).

What about the IC50 [17] of the same compound?
Its IC50 is 4.74 µM (active).

Which EC50 [18] does the source give for `CCN1CCN(c2ncc3c(n2)CC(c2cc(OC)c(OC)c(OC)c2)CC3=O)CC1` (stereo not drawn) here?
The EC50 was 124 µM (active).

And the IC50 [19]?
The IC50 was 0.419 µM (active).

And the EC50 [20]?
The EC50 was 5.01 µM (active).

What about the EC50 [21] of the same compound?
Its EC50 is 21.8 µM (active).

And the EC50 [22]?
Its EC50 is 2.34 µM (active).

For `Cc1nnc(NC(=O)c2sc3nc(-c4cccs4)cc(C(F)(F)F)c3c2N)s1`, which IC50 [23] is on record?
The IC50 was 0.61 µM (active).
